Reference: patent US20250263436A1, “BROAD-SPECTRUM ANTIVIRAL DRUG FOR ENTEROVIRUS, AND APPLICATION” (WUHAN INSTITUTE OF VIROLOGY, CHINESE ACADEMY OF SCIENCES, priority 2020, published 2025)
Several values for one entry are separate records, joined by “and”; a condition that tells them apart may be missing. Equal entries are not always repeated.

Legend:
Type in all cases: cell-based
Echo 11 = assay: Inhibition of Echo 11 in RD cells (viral RNA, qRT-PCR); conditions: inhibiting Echo 11 in RD cells
Experimental: (1) RD cells were plated in a 24-well plate.
(2) When the cells grew to a confluence of 70%-80%, the DMEM medium containing 10% serum was replaced with a DMEM medium containing 2% serum (the DMEM medium containing 2% serum was added in each well at an amount of 0.5 mL), and 5 μL of Echo 11 virus of 1×10^6 PFU/mL was added to each well.
(3) After 1 h, the polypeptides with final concentrations of 0.3125 μM, 0.625 μM, 1.25 μM, 2.5 μM, and 5 μM were added respectively. The group without polypeptide added was used as a control.
(4) The samples were collected 24 h after the infection of Echo 11 virus, and RNA was extracted with the total RNA extraction kit.
(5) The supernatant was discarded, then 350 μL of TRK lysate was added to each well, and the plate was put on a shaker for 5 min.
(6) 350 μL of 70% ethanol (DEPC) was added to each well, and then the plate was put on a shaker for 5 min.
(7) The solution in each well was transferred to a RNA extraction column for 1 min of centrifugation at 12000 g.
(8) The solution obtained in the recovery tube was reloaded on the column again for 1 min of centrifugation at 12000 g.
(9) RNA washing buffer 1 was added in the column for 30 s of centrifugation at 12000 g. […]
(14) 2 μL of RNA sample was subjected to a fluorescence quantitative experiment using the one step qRT-PCR kit. […]

[1] = Cytotoxicity of polypeptides in Vero cells (CCK-8); conditions: Vero cells, 24 h
Experimental: (§1) Therefore, this standard was testified by cytotoxicity assay, and the cells without any treatment were used as a control group.
(§2) (1) Vero cells were plated in a 96-well plate at 100 μL per well.
(§3) (2) When the cells grew to a confluence of 70%-80%, the DMEM medium containing 10% serum was replaced with a DMEM medium containing 2% serum, and a certain concentration gradient of polypeptide RQ or LQ or SQ was added, so that the final concentrations of the polypeptide in the wells were 0.073242 μM, 0.146484 μM, 0.292969 μM, 0.585938 μM, 1.171875 μM, 2.34375 μM, 4.6875 μM, 9.375 μM, 18.75 μM, 37.5 μM, 75 μM and 150 μM, respectively.
(§4) (3) The samples were collected 24 h after the addition of the polypeptide, and then 10 μL of live cell detection reagent CCK-8 was added to each well and mixed well.
(§5) (4) The plate was placed at 37° C. for 2 h.
(§6) (5) The absorbance value at OD450 was detected by a microplate reader.
(§7) The CC50 of each polypeptide was calculated taking the cell viability of untreated cells as 100%.

Vero cells = assay: Cytotoxicity of polypeptides in Vero cells (CCK-8); conditions: Vero cells, 24 h
Experimental: as §1, §2, §3, §4, §5, §6, §7

Huh7 cells = assay: Toxicity assay in Huh7 cells (CCK-8); conditions: Table 14, 24 h
Experimental: (§8) (1) Different cells were plated in a 96-well plate at 100 μL per well.
(§9) (2) When the cells grew to a confluence of 70%-80%, the DMEM medium containing 10% serum was replaced with a DMEM medium containing 2% serum, and a certain concentration gradient of polypeptide RQ was added, so that the final concentrations of the polypeptide in the wells were 0.073242 μM, 0.146484 μM, 0.292969 μM, 0.585938 μM, 1.171875 μM, 2.34375 μM, 4.6875 μM, 9.375 μM, 18.75 μM, 37.5 μM, 75 μM, 150 μM, and 300 μM, respectively.
as §4, §5, §6

[2] = Toxicity assay in Huh7 cells (CCK-8); conditions: human, Huh7 cells
Experimental: as §8, §9, §4, §5, §6

SMILES: CC[C@H](C)[C@H](NC(=O)[C@H](C)NC(=O)[C@H](CO)NC(=O)[C@H](CCCNC(=N)N)NC(=O)[C@H](CC(N)=O)NC(=O)[C@H](CC(N)=O)NC(=O)[C@H](Cc1ccc(O)cc1)NC(=O)[C@H](CCC(=O)O)NC(=O)[C@H](CCCNC(=N)N)NC(=O)CNC(=O)[C@H](CO)NC(=O)CNC(=O)[C@H](CCCNC(=N)N)NC(=O)[C@H](CCCNC(=N)N)NC(=O)[C@H](CCCNC(=N)N)NC(=O)[C@H](CCC(N)=O)NC(=O)[C@H](CCCNC(=N)N)NC(=O)[C@H](CCCNC(=N)N)NC(=O)[C@H](CCCCN)NC(=O)[C@H](CCCCN)NC(=O)[C@H](CCCNC(=N)N)NC(=O)CNC(=O)[C@@H](N)Cc1ccc(O)cc1)C(=O)NCC(=O)N[C@@H](CC(N)=O)C(=O)N[C@H](C(=O)N[C@H](C(=O)N[C@@H](CCC(=O)O)C(=O)N[C@@H](C)C(=O)N[C@@H](CC(C)C)C(=O)N[C@@H](Cc1ccccc1)C(=O)N[C@@H](CCC(N)=O)C(=O)O)[C@@H](C)CC)[C@@H](C)O [RQ]
- IC50 (Echo 11): 370 nM
- CC50 at 24 h ([1]; African green monkey, CCK-8): > 150 µM
- viability at 24 h, 0.073242 µM ([1]; polypeptide 0.073242 μM, read-out: Cell viability (%)): 101%
- viability at 24 h, 0.146484 µM ([1]; polypeptide 0.146484 μM, read-out: Cell viability (%)): 93.8%
- viability at 24 h, 0.292969 µM ([1]; polypeptide 0.292969 μM, read-out: Cell viability (%)): 92.7%
- viability at 24 h, 0.585938 µM ([1]; polypeptide 0.585938 μM, read-out: Cell viability (%)): 92.2%
- viability at 24 h, 1.17188 µM ([1]; polypeptide 1.171875 μM, read-out: Cell viability (%)): 116%
- viability at 24 h, 2.34375 µM ([1]; polypeptide 2.34375 μM, read-out: Cell viability (%)): 116%
- viability at 24 h, 4.6875 µM ([1]; polypeptide 4.6875 μM, read-out: Cell viability (%)): 113%
- viability at 24 h, 9.375 µM ([1]; polypeptide 9.375 μM, read-out: Cell viability (%)): 118%
- viability at 24 h, 18.75 µM ([1]; polypeptide 18.75 μM, read-out: Cell viability (%)): 111%
- viability at 24 h, 37.5 µM ([1]; polypeptide 37.5 μM, read-out: Cell viability (%)): 106%
- viability at 24 h, 75 µM ([1]; polypeptide 75 μM, read-out: Cell viability (%)): 110%
- viability at 24 h, 150 µM ([1]; polypeptide 150 μM, read-out: Cell viability (%)): 108%
- Cell viability (%) (Vero cells; polypeptide 0.073242 μM): 110.2362% and 105.9618%
- Cell viability (%) (Vero cells; polypeptide 0.146484 μM): 99.1% and 98.99%
- Cell viability (%) (Vero cells; polypeptide 0.292969 μM): 106.7492%
- Cell viability (%) (Vero cells; polypeptide 0.585938 μM): 91.56% and 90.78%
- Cell viability (%) (Vero cells; polypeptide 1.171875 μM): 115.2981% and 115.5231%
- Cell viability (%) (Vero cells; polypeptide 2.34375 μM): 111.0236% and 119.1226%
- Cell viability (%) (Vero cells; polypeptide 4.6875 μM): 109.7863% and 118.7852%
- Cell viability (%) (Vero cells; polypeptide 9.375 μM): 109.3363% and 99.1%
- Cell viability (%) (Vero cells; polypeptide 18.75 μM): 115.4106% and 105.7368%
- Cell viability (%) (Vero cells; polypeptide 37.5 μM): 108.5489%
- Cell viability (%) (Vero cells; polypeptide 75 μM): 127.5591% and 120.5849%
- Cell viability (%) (Vero cells; polypeptide 150 μM): 103.5996% and 100.1125%
- Viability of Huh7 cell (%) (Huh7 cells; RQ 0.073242 μM): 113.9801% and 116.7518%
- Viability of Huh7 cell (%) (Huh7 cells; RQ 0.146484 μM): 106.6132% and 101.8721%
- Viability of Huh7 cell (%) (Huh7 cells; RQ 0.292969 μM): 104.4979% and 102.018%
- Viability of Huh7 cell (%) (Huh7 cells; RQ 0.585938 μM): 100.7051% and 101.5074%
- Viability of Huh7 cell (%) (Huh7 cells; RQ 1.171875 μM): 97.2% and 99.03%
- Viability of Huh7 cell (%) (Huh7 cells; RQ 2.34375 μM): 100.1945% and 96.04%
- Viability of Huh7 cell (%) (Huh7 cells; RQ 4.6875 μM): 103.5497% and 101.2886%
- Viability of Huh7 cell (%) (Huh7 cells; RQ 9.375 μM): 101.4345% and 97.71%
- Viability of Huh7 cell (%) (Huh7 cells; RQ 18.75 μM): 93.41% and 94.29%
- Viability of Huh7 cell (%) (Huh7 cells; RQ 37.5 μM): 97.06% and 92.03%
- Viability of Huh7 cell (%) (Huh7 cells; RQ 75 μM): 93.27% and 88.09%
- Viability of Huh7 cell (%) (Huh7 cells; RQ 150 μM): 67.74% and 51.47%
- viability at 24 h, 0.073242 µM ([2]; Table 14, RQ 0.073242 μM, 24 h, read-out: Viability of Huh7 cell (%)): 113%
- viability at 24 h, 0.146484 µM ([2]; Table 14, RQ 0.146484 μM, 24 h, read-out: Viability of Huh7 cell (%)): 111%
- viability at 24 h, 0.292969 µM ([2]; Table 14, RQ 0.292969 μM, 24 h, read-out: Viability of Huh7 cell (%)): 111%
- viability at 24 h, 0.585938 µM ([2]; Table 14, RQ 0.585938 μM, 24 h, read-out: Viability of Huh7 cell (%)): 101%
- viability at 24 h, 1.17188 µM ([2]; Table 14, RQ 1.171875 μM, 24 h, read-out: Viability of Huh7 cell (%)): 104%
- viability at 24 h, 2.34375 µM ([2]; Table 14, RQ 2.34375 μM, 24 h, read-out: Viability of Huh7 cell (%)): 98.7%
- viability at 24 h, 4.6875 µM ([2]; Table 14, RQ 4.6875 μM, 24 h, read-out: Viability of Huh7 cell (%)): 98%
- viability at 24 h, 9.375 µM ([2]; Table 14, RQ 9.375 μM, 24 h, read-out: Viability of Huh7 cell (%)): 103%
- viability at 24 h, 18.75 µM ([2]; Table 14, RQ 18.75 μM, 24 h, read-out: Viability of Huh7 cell (%)): 101%
- viability at 24 h, 37.5 µM ([2]; Table 14, RQ 37.5 μM, 24 h, read-out: Viability of Huh7 cell (%)): 95%
- viability at 24 h, 75 µM ([2]; Table 14, RQ 75 μM, 24 h, read-out: Viability of Huh7 cell (%)): 90.9%
- viability at 24 h, 150 µM ([2]; Table 14, RQ 150 μM, 24 h, read-out: Viability of Huh7 cell (%)): 65.8%
- CC50 at 24 h ([2]; Table 1 (Huh and 293T cells)): > 300 µM
